pIC50: −log10 of the molar value. Non-standard residues stand in square brackets, D forms with d. Residues, ends and D or L forms follow the SMILES beside them. dNMeF = CN[C@H](Cc1ccccc1)C(=O)O
Columns and labels:
Homo sapiens = species on record: Homo sapiens; experiment: Selectivity ratio of IC50 for human integrin alphavbeta6 receptor to IC50 for human integrin alphavbeta8 receptor
Integrin alpha-V/beta-8 = Integrin alpha-V/beta-8 (Homo sapiens, UniProt P06756+P26012); experiment: Inhibition of LAP binding to human integrin alphavbeta8 receptor after 1 hr by solid-phase binding assay; type: protein-complex assay; conditions: for pIC50: read-out: IC50
Sequence of Integrin alpha-V/beta-8 (P06756 31-889 limits assumed): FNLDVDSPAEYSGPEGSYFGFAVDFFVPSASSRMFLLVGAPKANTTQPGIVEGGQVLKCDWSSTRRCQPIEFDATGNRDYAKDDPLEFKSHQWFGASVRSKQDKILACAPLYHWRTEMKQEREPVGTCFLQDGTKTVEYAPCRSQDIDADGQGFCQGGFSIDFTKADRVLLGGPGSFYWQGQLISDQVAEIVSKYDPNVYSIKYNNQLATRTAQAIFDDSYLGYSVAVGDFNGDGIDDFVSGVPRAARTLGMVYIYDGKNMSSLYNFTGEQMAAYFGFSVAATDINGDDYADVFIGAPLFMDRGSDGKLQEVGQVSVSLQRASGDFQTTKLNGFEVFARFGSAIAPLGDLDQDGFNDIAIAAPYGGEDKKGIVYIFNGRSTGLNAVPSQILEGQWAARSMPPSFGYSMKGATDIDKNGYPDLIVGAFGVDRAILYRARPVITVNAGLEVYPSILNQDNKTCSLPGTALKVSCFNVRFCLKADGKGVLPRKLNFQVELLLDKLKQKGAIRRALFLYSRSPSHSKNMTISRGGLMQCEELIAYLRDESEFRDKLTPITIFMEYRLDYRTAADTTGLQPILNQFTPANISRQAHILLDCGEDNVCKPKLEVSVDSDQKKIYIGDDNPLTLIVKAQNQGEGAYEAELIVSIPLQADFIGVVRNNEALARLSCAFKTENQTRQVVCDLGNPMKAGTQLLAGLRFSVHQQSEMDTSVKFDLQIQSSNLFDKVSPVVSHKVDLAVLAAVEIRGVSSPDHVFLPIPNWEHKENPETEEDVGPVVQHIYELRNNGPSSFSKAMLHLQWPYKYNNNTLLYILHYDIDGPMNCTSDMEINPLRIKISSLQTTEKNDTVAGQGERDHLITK
Sequence of Integrin alpha-V/beta-8 (P06756 891-1048 limits assumed): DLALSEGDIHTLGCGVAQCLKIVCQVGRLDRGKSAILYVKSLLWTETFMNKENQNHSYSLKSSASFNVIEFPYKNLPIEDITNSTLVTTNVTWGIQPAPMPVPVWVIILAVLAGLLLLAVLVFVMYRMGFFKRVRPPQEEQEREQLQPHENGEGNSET
Sequence of Integrin alpha-V/beta-8 (P26012 43-769 limits assumed): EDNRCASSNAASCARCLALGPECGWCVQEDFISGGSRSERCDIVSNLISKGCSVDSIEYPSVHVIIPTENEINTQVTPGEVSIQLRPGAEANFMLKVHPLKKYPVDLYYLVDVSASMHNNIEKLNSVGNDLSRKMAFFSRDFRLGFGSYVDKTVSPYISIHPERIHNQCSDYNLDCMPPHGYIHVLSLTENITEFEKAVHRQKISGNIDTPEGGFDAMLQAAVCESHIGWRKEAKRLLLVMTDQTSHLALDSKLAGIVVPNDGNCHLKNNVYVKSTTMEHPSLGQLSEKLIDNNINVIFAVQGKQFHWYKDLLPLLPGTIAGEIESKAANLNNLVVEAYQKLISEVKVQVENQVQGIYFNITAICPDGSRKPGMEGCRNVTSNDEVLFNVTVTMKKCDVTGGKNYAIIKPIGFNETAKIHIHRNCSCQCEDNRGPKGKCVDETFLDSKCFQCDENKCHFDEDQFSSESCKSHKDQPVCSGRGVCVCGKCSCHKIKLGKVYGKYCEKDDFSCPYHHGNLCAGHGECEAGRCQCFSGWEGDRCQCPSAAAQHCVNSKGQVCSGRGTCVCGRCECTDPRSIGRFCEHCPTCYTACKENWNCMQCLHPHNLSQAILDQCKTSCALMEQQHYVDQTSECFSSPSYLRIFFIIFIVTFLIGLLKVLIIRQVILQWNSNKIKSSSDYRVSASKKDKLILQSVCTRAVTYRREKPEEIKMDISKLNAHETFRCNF

Integrin alpha-V/beta-6 = Integrin alpha-V/beta-6 (Homo sapiens, UniProt P06756+P18564); experiment: Inhibition of LAP binding to human integrin alphavbeta6 receptor after 1 hr by solid-phase binding assay; type: protein-complex assay; conditions: for pIC50: read-out: IC50
Sequence of Integrin alpha-V/beta-6 (P06756 31-889 limits assumed): as the sequence (P06756 31-889 limits assumed) above
Sequence of Integrin alpha-V/beta-6 (P06756 891-1048 limits assumed): as the sequence (P06756 891-1048 limits assumed) above
Sequence of Integrin alpha-V/beta-6 (P18564 22-788 limits assumed): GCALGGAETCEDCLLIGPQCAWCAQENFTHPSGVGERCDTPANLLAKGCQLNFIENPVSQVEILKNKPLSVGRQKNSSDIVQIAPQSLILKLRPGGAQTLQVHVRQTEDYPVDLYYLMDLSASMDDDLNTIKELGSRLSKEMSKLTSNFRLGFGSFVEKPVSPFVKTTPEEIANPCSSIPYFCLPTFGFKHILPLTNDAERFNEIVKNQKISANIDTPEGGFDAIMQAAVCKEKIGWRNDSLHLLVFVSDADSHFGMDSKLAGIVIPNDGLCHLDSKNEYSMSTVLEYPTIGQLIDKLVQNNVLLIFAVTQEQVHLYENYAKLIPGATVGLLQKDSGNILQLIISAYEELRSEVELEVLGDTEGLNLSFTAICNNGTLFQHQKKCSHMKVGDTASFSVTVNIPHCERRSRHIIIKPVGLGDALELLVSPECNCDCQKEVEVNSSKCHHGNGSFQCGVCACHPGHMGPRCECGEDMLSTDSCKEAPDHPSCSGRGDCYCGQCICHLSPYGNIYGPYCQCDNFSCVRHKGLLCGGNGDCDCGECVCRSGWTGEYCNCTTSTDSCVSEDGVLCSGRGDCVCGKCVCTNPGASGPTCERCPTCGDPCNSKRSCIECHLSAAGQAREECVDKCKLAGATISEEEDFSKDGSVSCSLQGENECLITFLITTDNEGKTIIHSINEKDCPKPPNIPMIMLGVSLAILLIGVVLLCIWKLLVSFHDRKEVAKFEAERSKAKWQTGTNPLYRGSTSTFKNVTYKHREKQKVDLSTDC

Compound	Ratio IC50 (Homo sapiens)	pIC50 (Integrin alpha-V/beta-8)	pIC50 (Integrin alpha-V/beta-6)	IC50 (Integrin alpha-V/beta-8)	IC50 (Integrin alpha-V/beta-6)
CC(C)C[C@@H]1NC(=O)[C@H](CC(=O)O)NC(=O)[C@H]([C@@H](C)O)NC(=O)[C@H](CCCNC(=N)N)NC(=O)[C@H](Cc2ccccc2)NC(=O)[C@H](C)NC(=O)[C@@H]2CCCN2C(=O)[C@H]2CCCN2C1=O	60	8.37	6.59	–	–
CC(C)C[C@@H]1NC(=O)[C@H](C)NC(=O)[C@H](Cc2ccccc2)N(C)C(=O)[C@H]2CCCN2C(=O)[C@H](CC(C)C)NC(=O)[C@H](CC(=O)O)NC(=O)CNC(=O)[C@H](CCCNC(=N)N)NC1=O	3	7.60	7.13	–	–
CC[C@H](C)[C@@H]1NC(=O)[C@H](C)NC(=O)[C@@H]2CCCN2C(=O)[C@H]2CCCN2C(=O)[C@H](CC(C)C)NC(=O)[C@H](CC(=O)O)NC(=O)CNC(=O)[C@H](CCCNC(=N)N)NC1=O	26.1	8.81	7.40	–	–
CCCC[C@@H]1NC(=O)[C@H](CC(=O)O)NC(=O)CNC(=O)[C@H](CCCNC(=N)N)NC(=O)[C@H](Cc2ccccc2)NC(=O)[C@H](C)NC(=O)[C@@H]2CCCN2C(=O)[C@H]2CCCN2C1=O	3.7	7.42	6.85	–	–
CC(C)C[C@@H]1NC(=O)[C@H](CO)NC(=O)[C@@H]2CCCN2C(=O)[C@H]2CCCN2C(=O)[C@H](CC(C)C)NC(=O)[C@H](CC(=O)O)NC(=O)CNC(=O)[C@H](CCCNC(=N)N)NC1=O (cyclo(RGDL[dP]PSL))	15	–	–	–	–
CC(=O)NCCCCCCNC(=N)NCCC[C@@H]1NC(=O)[C@H](CC(C)C)NC(=O)CNC(=O)[C@@H]2CCCN2C(=O)[C@H]2CCCN2C(=O)[C@H](CC(C)C)NC(=O)[C@H](CC(=O)O)NC(=O)CNC1=O	–	6.64	–	–	–
CC(=O)NCCCCCCN1C(=O)[C@H]2CCCN2C(=O)[C@H](CC(C)C)NC(=O)[C@H](CC(=O)O)NC(=O)CNC(=O)[C@H](CCCNC(=N)N)NC(=O)[C@H](CC(C)C)NC(=O)CNC(=O)[C@@H]1C	–	7.70	–	–	–
CC(C)C[C@@H]1NC(=O)[C@H](C)NC(=O)[C@H](C)NC(=O)[C@H](CC(C)C)NC(=O)[C@H](CC(=O)O)NC(=O)CNC(=O)[C@H](CCCNC(=N)N)NC(=O)[C@@H]2CCCN2C(=O)[C@H]2CCCN2C(=O)[C@H](C)NC1=O	–	6.21	7.84	–	–
CC(=O)NCCCCN1C(=O)[C@H]2CCCN2C(=O)[C@H](CC(C)C)NC(=O)[C@H](CC(=O)O)NC(=O)CNC(=O)[C@H](CCCNC(=N)N)NC(=O)[C@H](CC(C)C)NC(=O)CNC(=O)[C@@H]1C	–	7.57	–	–	–
CC(C)C[C@@H]1NC(=O)[C@H](CC(=O)O)NC(=O)[C@@H]([C@H](C)O)NC(=O)[C@H](CCCNC(=N)N)NC(=O)[C@H](Cc2ccccc2)NC(=O)[C@H](C)NC(=O)[C@@H]2CCCN2C(=O)[C@H]2CCCN2C1=O	–	–	–	Not Active	Not Active
CC(C)C[C@@H]1NC(=O)[C@H](CC(=O)O)NC(=O)CNC(=O)[C@H](CCCNC(=N)N)NC(=O)[C@H](C)NC(=O)[C@@H]2CCCN2C(=O)[C@H]2CCCN2C(=O)[C@H](CC(C)C)NC(=O)[C@H](C)NC(=O)[C@H](C)NC1=O (cyclo(RGDLAAL[dP]PA))	–	7.05	–	–	–
CC(C)[C@@H]1NC(=O)[C@H](CC(=O)O)NC(=O)CNC(=O)[C@H](CCCNC(=N)N)NC(=O)[C@H](Cc2ccccc2)NC(=O)[C@H](C)NC(=O)[C@@H]2CCCN2C(=O)[C@H]2CCCN2C1=O	–	6.33	–	–	Not Active
CC(C)C[C@@H]1NC(=O)[C@H](CC(=O)O)NC(=O)CNC(=O)[C@H](CCCNC(=N)N)NC(=O)[C@H](C)NC(=O)[C@@H]2CCCN2C(=O)[C@H]2CCCN2C1=O (cyclo(ARGDL[dP]P))	2.1	6.71	–	–	–
CC(C)C[C@@H]1NC(=O)[C@H](C)NC(=O)[C@H](C)NC(=O)[C@H](CC(C)C)NC(=O)[C@H](CC(=O)O)NC(=O)[C@H]([C@@H](C)O)NC(=O)[C@H](CCCNC(=N)N)NC(=O)[C@@H]2CCCN2C(=O)[C@H]2CCCN2C(=O)[C@H](C)NC1=O	–	5.51	5.81	–	–
CC(C)C[C@@H]1NC(=O)[C@H](CC(=O)O)NC(=O)[C@H]([C@@H](C)O)NC(=O)[C@H](CCCNC(=N)N)NC(=O)[C@H](C)NC(=O)[C@H](CC(C)C)NC(=O)[C@@H]2CCCN2C(=O)[C@H]2CCCN2C(=O)[C@H](C)NC(=O)[C@H](C)NC1=O	–	6.82	7.02	–	–

Second part, the molecule after the results:

Ratio IC50 (Homo sapiens)	pIC50 (Integrin alpha-V/beta-8)	pIC50 (Integrin alpha-V/beta-6)	IC50 (Integrin alpha-V/beta-8)	IC50 (Integrin alpha-V/beta-6)	Compound
1.6	7.72	7.51	–	–	CC(C)C[C@@H]1NC(=O)[C@H](C)NC(=O)[C@@H]2CCCN2C(=O)[C@@H](C(C)C)N(C)C(=O)[C@H](CC(C)C)NC(=O)[C@H](CC(=O)O)NC(=O)CNC(=O)[C@H](CCCNC(=N)N)NC1=O
–	5.36	6.08	–	–	C[C@@H]1NC(=O)[C@@H]2CCCN2C(=O)[C@H]2CCCN2C(=O)[C@H](CCCCN)NC(=O)[C@H](CC(=O)O)NC(=O)CNC(=O)[C@H](CCCNC(=N)N)NC(=O)[C@H](Cc2ccccc2)NC1=O
–	5.89	6.58	–	–	CC(C)C[C@@H]1NC(=O)[C@H](CC(=O)O)NC(=O)[C@H]([C@@H](C)O)NC(=O)[C@H](CCCNC(=N)N)NC(=O)[C@H](C)NC(=O)[C@@H]2CCCN2C(=O)[C@H]2CCCN2C(=O)[C@H](CC(C)C)NC(=O)[C@H](C)NC(=O)[C@H](C)NC1=O
3.7	6.94	6.38	–	–	CC(C)C[C@@H]1NC(=O)[C@@H]2CCCN2C(=O)[C@H]2CCCN2C(=O)[C@H](CC(C)C)NC(=O)[C@H](CC(=O)O)NC(=O)CNC(=O)[C@H](CCCNC(=N)N)NC(=O)[C@H](C)NC1=O
–	7.04	7.32	–	–	CC(C)C[C@@H]1NC(=O)[C@H](CC(=O)O)NC(=O)CNC(=O)[C@H](CCCNC(=N)N)NC(=O)[C@@H](c2ccccc2)NC(=O)[C@H](C)NC(=O)[C@@H]2CCCN2C(=O)[C@H]2CCCN2C1=O
–	5.95	7.16	–	–	CC(C)C[C@@H]1NC(=O)[C@H](C)NC(=O)[C@@H]2CCCN2C(=O)[C@H]2CCCN2C(=O)[C@H](C)NC(=O)[C@H](CC(C)C)NC(=O)[C@H](CC(=O)O)NC(=O)CNC(=O)[C@H](CCCNC(=N)N)NC(=O)[C@H](C)NC1=O
–	5.94	6.49	–	–	C[C@@H]1NC(=O)[C@@H]2CCCN2C(=O)[C@H]2CCCN2C(=O)[C@H](Cc2ccccc2)NC(=O)[C@H](CC(=O)O)NC(=O)CNC(=O)[C@H](CCCNC(=N)N)NC(=O)[C@H](Cc2ccccc2)NC1=O
–	5.07	6.31	–	–	CC(C)C[C@@H]1NC(=O)[C@H](C)NC(=O)[C@@H]2CCCN2C(=O)[C@H]2CCCN2C(=O)[C@H](C)NC(=O)[C@H](CC(C)C)NC(=O)[C@H](CC(=O)O)NC(=O)[C@H]([C@@H](C)O)NC(=O)[C@H](CCCNC(=N)N)NC(=O)[C@H](C)NC1=O
–	–	6.25	Not Active	–	CC(C)C[C@H]1NC(=O)[C@H](CC(=O)O)NC(=O)CNC(=O)[C@H](CCCNC(=N)N)NC(=O)[C@H](Cc2ccccc2)NC(=O)[C@H](C)NC(=O)[C@@H]2CCCN2C(=O)[C@H]2CCCN2C1=O
15	–	–	–	–	CC(C)C[C@@H]1NC(=O)[C@H](C)NC(=O)[C@@H]2CCCN2C(=O)[C@@H](Cc2ccccc2)N(C)C(=O)[C@H](CC(C)C)NC(=O)[C@H](CC(=O)O)NC(=O)CNC(=O)[C@H](CCCNC(=N)N)NC1=O (cyclo(RGDL[dNMeF]PAL))
–	6.96	7.87	–	–	CC(C)C[C@@H]1NC(=O)[C@H](CC(=O)O)NC(=O)CNC(=O)[C@H](CCCNC(=N)N)NC(=O)[C@H](C)NC(=O)[C@H](CC(C)C)NC(=O)[C@@H]2CCCN2C(=O)[C@H]2CCCN2C(=O)[C@H](C)NC(=O)[C@H](C)NC1=O

— ChEMBL document CHEMBL4411322 (J Med Chem, 2019)
